According to patent US11653649B2, “Antimicrobial composition including a dihydroxamic acid and methods of inhibiting microbial growth utilizing the same” (Kimberly-Clark Worldwide, Inc., priority 2017, dated 2023):
Marks after values point to notes of the source that are not given here.

Legend:
[1] = test system: Pseudomonas aeruginosa (ATCC 9027); experiment: Anti-bacterial MIC, microbroth dilution; assay type: cell-based; details: for MIC v. P. aeruginosa: Tables 4 and 5, rounded values, wt %; for MIC (%) P. aeruginosa: pH 4.5, CAMHB, 37° C., 24 hours
Protocol: (§1) Method: Microbroth Dilution Method (96-well format).
(§2) Solvent: Sterile MilliQ water and 0.1 M Citrate Buffer pH 4.5
(§3) Media used: • Bacterial: Cation-Adjusted Mueller-Hinton Broth (CAMHB) • Fungi: RPMI-1640
(§4) Bacteria • Incubation Temperature: 37° C. • Incubation Time: 24 hours • Inoculum Size: 5×10(5) cfu/mL • Strains: • Staphylococcus aureus (ATCC 6538) • Escherichia coli (ATCC 8739) • Pseudomonas aeruginosa (ATCC 9027) • Burkholderia cepacia (ATCC 25416)
(§5) Fungi: • Incubation Temperature: • 25° C. (Candida albicans) • 35° C. […] . All solubilized and pH 4.5-adjusted test compounds were filter-sterilized before subjecting to MIC study. Positive control was also dissolved in the similar way. […] All the strains were inoculated on their respective agar medium and incubated under conditions/durations detailed above. • Preparation of inoculum: • The bacterial colony suspension in 0.85% saline was adjusted to 1 McFarland's standard using Densimat which was further diluted to 1:100 in CAMHB. The fungal suspension for inoculation was prepared in 0.85% saline from 6 days old culture (for mold, A. brasiliensis) and from 2 days old culture (for yeast, C. albicans) from Sabouraud Dextrose agar medium. Culture was scrapped/scooped from the plate, suspended in saline and the spores/cells counted using haemocytometer to provide a final inoculum of 5×10^4 cfu/mL. • 96-well Plate Preparation: • Minimum inhibitory concentration (MIC) is performed to determine potency of test compounds along with standard antibiotics against bacterial strains. Micro titer plates were prepared as per the CLSI recommendations. One hundred and seventy five microliters of Cation-adjusted Muller Hinton Broth (CAMHB) was added to the first column of a 96 well flat bottom plate, which is the media control. Second column is for the stocks of the test compounds and reference standards from which dilutions are made. Then 175 μL of CAMHB was added to the 5th, 8th and 11th columns, 75 μL of CAMHB to the 4th, 7th and 10th columns and 50 μL of CAMHB to the 3rd, 6th and 9th columns and the last column was the organism control. Antimicrobial Efficacy Testing

[2] = test system: Aspergillus brasiliensis (ATCC 16404); experiment: Anti-fungal MIC, microbroth dilution; assay type: cell-based; details: pH 4.5, RPMI-1640, 35° C., 48 hours
Protocol: as §1, §2, §3, §5

[3] = test system: Candida albicans (ATCC 10231); experiment: Anti-fungal MIC, microbroth dilution; assay type: cell-based; details: pH 4.5, RPMI-1640, 25° C., 48 hours
Protocol: as §1, §2, §3, §5

[4] = test system: Escherichia coli (ATCC 8739); experiment: Anti-bacterial MIC, microbroth dilution; assay type: cell-based; details: pH 4.5, CAMHB, 37° C., 24 hours
Protocol: as §1, §2, §3, §4, §5

[5] = test system: Staphylococcus aureus (ATCC 6538); experiment: Anti-bacterial MIC, microbroth dilution; assay type: cell-based; details: pH 4.5, CAMHB, 37° C., 24 hours
Protocol: as §1, §2, §3, §4, §5

[6] = test system: Burkholderia cepacia (ATCC 25416); experiment: Anti-bacterial MIC, microbroth dilution; assay type: cell-based; details: pH 4.5, CAMHB, 37° C., 24 hours
Protocol: as §1, §2, §3, §4, §5

[7] = Determination of Aqueous Solubility (pH-4.5) by Miniaturized Shake Flask Method; assay type: physicochemical; details: ultrapure water pH 4.5, 22° C., highest test concentration 1% w/v
Protocol: Determination of Aqueous Solubility (pH-4.5) by Miniaturized Shake Flask Method
Test Media: Ultrapure water (pH-4.5) (18MΩDl water)
Test Concentration: 10 mg/ml
Incubation Details: 22° C. +/−3° C.
Method of Analysis: Photometric analysis using Microplate reader
Data Output: Aqueous Solubility
Required volume of ultrapure water (˜75 mL) was taken and pH was adjusted to 4.5 using citrate buffer (pH-4.5). This water was used as a test media for determining the solubility of test/reference items.
Solubility Testing by Shake Flask Method
The solubility of test items were determined at a highest test concentration of 1% w/v (10 mg/mL).
40 mg of test items were weighed into tubes.
4 mL of Ultrapure water was added to all tubes to get a concentration of 10 mg/mL (1% w/v).
The initial pH of the solubility samples were recorded. […] Then, the solution were observed visually for any precipitation.
The visually soluble samples were centrifuged at 10000 rpm for 10 minutes at room temperature (22° C.±3° C.).
An aliquot of the supernatant were diluted with equal volume of methanol. The samples were further diluted in methanol: water (50:50) to obtain dilution of 1:2, 1:4, 1:16, 1:32 etc.
The samples were then transferred to UV plate and scanned at Amax of that particular test/reference item.

[8] = test system: various bacteria and fungi; experiment: Antimicrobial Efficacy Testing (USP 51), overall outcome; assay type: cell-based; details: USP 51, 28 days
Excerpt: The Antimicrobial Efficacy Testing discussed herein was completed pursuant to the standard antimicrobial effectiveness test from Chapter 51 of the United States Pharmacopeia (USP 51), in which an antimicrobial composition can be tested against at least five microorganisms, including bacteria and fungi. In the Antimicrobial Efficacy Testing conducted herein, the following bacteria were utilized: Staphylococcus aureus, Escherichia coli, Pseudomonas aeruginosa, and Burkholderia cepacia; and the following fungi were utilized: Candida albicans, and Aspergillus brasiliensis. While one of ordinary skill in the art could replicate such Antimicrobial Efficacy Testing by completing USP 51 protocol, a brief summary was that each antimicrobial composition sample was tested against each microorganism being held at room temperature over the course of 28 days, with each sample being evaluated at specific intervals at the beginning of the Testing (initial), day 7, day 14, and day 28. The test sample colonies were counted at each interval to determine the number of surviving microorganisms. The log reduction of each microorganism at each interval was reported. The effectiveness of the antimicrobial agent sample was based on the USP 51 passing criteria.

Row | Molecule | MIC v. P. aeruginosa [1] | MIC (%) A. brasiliensis [2] | MIC (%) C. albicans [3] | MIC (%) P. aeruginosa [1] | MIC (%) E. coli [4] | MIC (%) S. Aureus [5] | MIC (%) B. cepacia [6] | Solubility (wt %) [7] [wt %] | Antimicrobial Efficacy Testing outcome (inhibiting growth of various bacteria and fungi) [8]
1 | O=[N+]([O-])C(Br)(CO)CO [2-Bromo-2-Nitropropane-1,3-Diol, reference compound] | 0.00% | – | – | – | – | – | – | – | –
2 | O=C(O)c1ccccc1 [Benzoic Acid, reference compound] | 0.07% | – | – | – | – | – | – | – | –
3 | OCc1ccccc1 [Benzyl Alcohol, reference compound] | 0.35% | – | – | – | – | – | – | – | –
4 | CCCCCCCC(=O)NO [Caprylhydroxamic Acid, reference compound] | 0.07% | 0.004% | 0.008% | 0.0679% | 0.017% | 0.034% | 0.017% | 0.1358 | –
5 | CCCCCC(=O)NO [Compound No. 1, Hexylhydroxamic Acid] | 0.06% | 0.008% | 0.031% | 0.0625% | 0.125% | 0.25% | 0.0625% | >1.00 | –
6 | CCCCCCCCCC(=O)NO [Compound No. 3, Decylhydroxamic Acid] | >0.00125%* | >0.00125* % | >0.00125* % | >0.00125* % | >0.00125* % | >0.00125* % | >0.00125* % | 0.0025 | –
7 | O=C(NO)c1ccccc1 [Compound No. 5, Benzhydroxamic Acid] | 0.06% | 0.016% | 0.031% | 0.0625% | 0.25% | 0.125% | 0.125% | >1.00 | –
8 | O=C(NO)c1ccc(O)cc1 [Compound No. 6, p-hydroxy Benzhydroxamic Acid] | 0.06% | 0.25% | >1.00* % | 0.0625% | 0.0625% | 0.125% | 0.031% | >1.00 | –
9 | O=C(CC(O)C(=O)NO)NO (stereo not shown) [Compound No. 7, N, N′, 2-trihydroxy butane diamide] | 0.03% | 0.008% | 0.008% | 0.031% | 0.016% | 0.008% | 0.016% | >1.00 | –
10 | O=C(CCC(=O)NO)NO [Compound No. 8, N, N′-dihydroxysuccinamide] | 0.06% | 0.031% | 0.25% | 0.0625% | 0.031% | 0.016% | 0.031% | >1.00 | –
11 | O=C(CCCCCCC(=O)NO)NO [Compound No. 9, N, N′-dihydroxyoctanediamide] | >0.12%* | >0.124* % | >0.124* % | >0.124* % | >0.124* % | >0.124* % | >0.124* % | 0.248 | did not pass
12 | CC1(C)C(=O)N(CO)C(=O)N1CO [DMDM Hydantoin, reference compound] | 0.02% | – | – | – | – | – | – | – | –
13 | CC(=O)C1C(=O)C=C(C)OC1=O (stereo not shown) [Dehydroacetic Acid, reference compound] | 2.00% | – | – | – | – | – | – | – | –
14 | O=C(NCO)N(CO)C1(CO)C(=O)NC(=O)N1CO (stereo not shown) [Diazolidinyl Urea, reference compound] | 0.10% | – | – | – | – | – | – | – | –
15 | Cn1sccc1=O [Methylisothiazolinone, reference compound] | 0.00% | – | – | – | – | – | – | – | –
16 | COC(=O)c1ccc(O)cc1 [Methylparaben, reference compound] | 0.20% | – | – | – | – | – | – | – | –
17 | OCCc1ccccc1 [Phenethyl Alcohol, reference compound] | 0.41% | – | – | – | – | – | – | – | –
18 | CCCCCCCCCCCC(=O)NO [compound 2, Laurylhydroxamic Acid] | – | >0.0011* % | >0.0011* % | >0.0011* % | >0.0011* % | >0.0011* % | >0.0011* % | 0.0022 | –
19 | Propylhydroxamic Acid [reference compound] | 0.50% | – | – | – | – | – | – | – | –
